Assay [1] deals with rat Fatty Acid Amide Hydrolase (FAAH) (Rattus norvegicus (Rat), UniProt P97612). Nature of the assay: FAAH in vitro fluorescence assay (AAMCA hydrolysis), rat enzyme. It counts as biochemical. Conditions: for rFAAH % inhibition at 100 nM / inhibition at 0.1 µM: 100 nM (tier I); for inhibition at 0.1 µM: read-out: rFAAH % inhibition at 100 nM. In short, it runs like this:
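Rat FAAH, E. coli-expressed with groEL-groES chaperone, used as enriched membrane extract with 10 μM AAMCA in 50 mM HEPES, 1 mM EDTA, 0.1% BSA, pH 7.4 (1% DMSO final).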

Assay [2] concerns the target human Fatty Acid Amide Hydrolase (FAAH) (Homo sapiens (Human), UniProt O00519). Nature of the assay: biochemical.
Protocol: Material and Reagents: All reagents were purchased from Sigma-Aldrich unless specified. […] Chaperone protein groEL-groES in pGRO7 plasmid (Takara Bio Inc, Japan) was co-expressed with Fatty Acid Amide Hydrolase (FAAH) to improve solubility of the protein expressed in E coli. […] Briefly, the bacterial cultures in Luria Broth (2 L) were induced with arabinose (2 mM) and Isopropyl (β-D-1-thiogalactopyranoside, IPTG (1 mM), for 20 h at room temperature. The cultures were centrifuged at 1200×g for 10 min and the cell pellet was resuspended in 100 mL buffer containing of 20 mM NaPi (pH 7.4), 100 mM NaCl, Benzonase (500u), Aprotinin (1 μg/mL) and Leupeptin (1 μg/mL). Cells were lyzed by sonication (Amp 20%, Pulse 15 s×15, on ice) and the cell debris removed by centrifugation at 5000×g for 20 min. The supernatant was enriched via ultracentrifugation at 100,000×g for 1 h and the cell pellet was resuspended in 16 mL buffer containing 20 mM NaPi (pH 7.8), 500 mM NaCl, 1% Triton X-100. The resuspended cell extract was subjected to ultra-centrifugation at 100,000×g for 1 h and the enriched supernatant was used in the in vitro assay. All protein extraction steps were carried out on ice or at 4° C.
The assay was carried out in 200 μL volume in a 96-well black polystyrene plate (Greiner Bio-one, Germany). Each reaction consisted of human Fatty Acid Amide Hydrolase (FAAH) protein and 10 μM AAMCA in assay buffer containing 50 mM HEPES, 1 mM EDTA and 0.1% BSA, pH 7.4. The reaction was incubated with 2 μL of varying concentrations of inhibitor in DMSO (final concentration of DMSO 1%) with shaking for 1 min and monitored for increase in fluorescence in kinetic mode for 50 min. […] Rate of reaction as a function of the concentration of the inhibitor was used to determine the IC50 of the inhibitors. Data was analyzed using GraphPad Prism 5 (GraphPad Software Inc., San Diego, Calif.).
Where [3] appears, read: human FAAH, read-out: hFAAH IC50.

Molecules are shown by their SMILES. Like-named read-outs stand apart in the source and are kept apart here.

Chain of human Fatty Acid Amide Hydrolase (FAAH) (O00519 30-579): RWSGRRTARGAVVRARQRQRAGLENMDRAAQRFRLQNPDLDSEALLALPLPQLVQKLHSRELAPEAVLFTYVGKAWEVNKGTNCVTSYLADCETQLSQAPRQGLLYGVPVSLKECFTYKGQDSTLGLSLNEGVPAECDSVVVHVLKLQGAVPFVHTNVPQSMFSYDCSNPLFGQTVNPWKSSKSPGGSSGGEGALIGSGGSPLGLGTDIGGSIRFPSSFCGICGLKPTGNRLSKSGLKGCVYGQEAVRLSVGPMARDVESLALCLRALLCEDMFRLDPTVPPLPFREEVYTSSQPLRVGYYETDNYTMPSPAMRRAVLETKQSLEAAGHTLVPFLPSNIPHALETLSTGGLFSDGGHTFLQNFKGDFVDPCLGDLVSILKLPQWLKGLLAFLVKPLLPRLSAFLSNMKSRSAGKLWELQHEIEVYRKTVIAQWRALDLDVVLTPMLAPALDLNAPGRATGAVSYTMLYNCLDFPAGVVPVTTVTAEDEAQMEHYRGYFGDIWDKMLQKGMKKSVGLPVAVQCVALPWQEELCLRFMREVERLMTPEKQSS
Chain of rat Fatty Acid Amide Hydrolase (FAAH) (P97612 30-579): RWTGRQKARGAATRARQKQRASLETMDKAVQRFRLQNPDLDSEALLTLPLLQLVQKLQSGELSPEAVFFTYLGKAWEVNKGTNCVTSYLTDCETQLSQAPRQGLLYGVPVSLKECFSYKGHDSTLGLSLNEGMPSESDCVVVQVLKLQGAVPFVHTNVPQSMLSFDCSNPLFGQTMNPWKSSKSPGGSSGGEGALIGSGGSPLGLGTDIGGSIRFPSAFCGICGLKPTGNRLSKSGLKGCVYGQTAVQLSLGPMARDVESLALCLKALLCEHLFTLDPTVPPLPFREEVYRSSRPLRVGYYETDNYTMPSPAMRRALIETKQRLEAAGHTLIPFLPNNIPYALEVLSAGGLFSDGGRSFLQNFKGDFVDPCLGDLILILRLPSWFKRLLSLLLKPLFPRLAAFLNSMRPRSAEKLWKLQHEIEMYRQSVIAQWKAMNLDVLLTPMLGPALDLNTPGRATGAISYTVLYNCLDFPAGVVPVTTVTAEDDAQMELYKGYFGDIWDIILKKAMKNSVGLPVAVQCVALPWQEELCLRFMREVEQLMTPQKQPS

Turning to `O=C(NC1CCC(=Cc2cccc(Oc3ccc(C(F)(F)F)cn3)c2)CC1)c1cc[nH]n1` (stereo not shown) [Example 2.A-1, N-[4-[[3-[[5-(Trifluoromethyl)-2-pyridyl]oxy]phenyl]methylene]cyclohexyl]-1H-pyrazole-3-carboxamide], the IC50 in assay [1] (rat FAAH, read-out: rFAAH IC50) amounted to 418 nM; in assay [2] (setting [3]) it was 10 nM.

As to `O=C(NC1CCC(=Cc2cccc(Oc3ccc(C(F)(F)F)cn3)c2)CC1)c1ccc(-n2nccn2)nc1` (stereo not shown) [Example 2.B-15, 6-(Triazol-2-yl)-N-[4-[[3-[[5-(trifluoromethyl)-2-pyridyl]oxy]phenyl]methylene]cyclohexyl]pyridine-3-carboxamide], the IC50 in assay [1] (rat FAAH, read-out: rFAAH IC50) was determined as 9 nM; in assay [2] (setting [3]), 3 nM.

Regarding `Cc1nc(Oc2cccc(C=C3CCC(NC(=O)c4cnc(N)nc4)CC3)c2)ccc1Cl` (stereo not shown) [Example 2.E-27, 2-Amino-N-[4-[[3-[(5-chloro-6-methyl-2-pyridyl)oxy]phenyl]methylene]cyclohexyl]pyrimidine-5-carboxamide], the IC50 in assay [1] (rat FAAH, read-out: rFAAH IC50) amounted to 17 nM; in assay [2] (setting [3]), 1 nM.

In the case of `CCN(C)c1ccc(C(=O)NC2CCC(=Cc3cccc(Oc4ccc(C(F)(F)F)cn4)c3)CC2)cn1` (stereo not shown) [Example 5.A-7, 6-[Ethyl(methyl)amino]-N-[4-[[3-[[5-(trifluoromethyl)-2-pyridyl]oxy]phenyl]methylene]cyclohexyl]pyridine-3-carboxamide], the IC50 in assay [1] (rat FAAH, read-out: rFAAH IC50) came out at 15 nM; in assay [2] (setting [3]), 128 nM.

Take `Cc1cc(C(=O)NC2CCC(=Cc3cccc(Oc4ccc(C(F)(F)F)c(C)n4)c3)CC2)cnc1N` (stereo not shown) [Example 2.E-23, 6-Amino-5-methyl-N-[4-[[3-[[6-methyl-5-(trifluoromethyl)-2-pyridyl]oxy]phenyl]methylene]cyclohexyl]pyridine-3-carboxamide]: the IC50 in assay [1] (rat FAAH, read-out: rFAAH IC50) stood at 65 nM; in assay [2] (setting [3]) it was 12 nM.

For `O=C(NC1CCC(=Cc2cccc(Oc3ccc(C(F)(F)F)cn3)c2)CC1)c1cnc2[nH]ccc2c1` [Example 2.D-5, N-[4-[[3-[[5-(Trifluoromethyl)-2-pyridyl]oxy]phenyl]methylene]cyclohexyl]-1H-pyrrolo[2,3-b]pyridine-5-carboxamide], the IC50 was 16 nM in assay [1] (rat FAAH, read-out: rFAAH IC50) and 2 nM in assay [2] (read-out: hFAAH IC50).

Regarding `O=C(NC1CCC(=Cc2cccc(Oc3ccc(C(F)(F)F)cn3)c2)CC1)c1ccc(-n2cnnc2)nc1` (stereo not shown) [Example 2.B-13, 6-(1,2,4-Triazol-4-yl)-N-[4-[[3-[[5-(trifluoromethyl)-2-pyridyl]oxy]phenyl]methylene]cyclohexyl]pyridine-3-carboxamide], the IC50 in assay [1] (rat FAAH, read-out: rFAAH IC50) was 14 nM; in assay [2] (read-out: hFAAH IC50), 2 nM.

Turning to `O=C(NC1CCC(=Cc2cccc(Oc3ccc(C(F)(F)F)cn3)c2)CC1)c1cnc2[nH]ccc2c1` (single isomer, unassigned; (-)) [Example 20.A-14, (−)-N-[4-[[3-[[5-(trifluoromethyl)-2-pyridyl]oxy]phenyl]methylene]cyclohexyl]-1H-pyrrolo[2,3-b]pyridine-5-carboxamide], the IC50 in assay [1] (rat FAAH, read-out: rFAAH IC50) stood at 8.6 nM; in assay [2] (read-out: hFAAH IC50), 1 nM.

On to `O=C(NC1CCC(=Cc2cccc(Oc3ccc(C(F)(F)F)cn3)c2)CC1)c1cn[nH]c1` (single isomer, unassigned; (-)) [Example 20.A-12, (−)-N-[4-[[3-[[5-(trifluoromethyl)-2-pyridyl]oxy]phenyl]methylene]cyclohexyl]-1H-pyrazole-4-carboxamide], for which the IC50 in assay [1] (rat FAAH, read-out: rFAAH IC50) is 35.5 nM; in assay [2] (setting [3]), 1.7 nM.

For `Cc1nnc(C(=O)NC2CCC(=Cc3cccc(Oc4ccc(C(F)(F)F)cn4)c3)CC2)o1` (stereo not shown) [Example 2.A-20, 5-Methyl-N-[4-[[3-[[5-(trifluoromethyl)-2-pyridyl]oxy]phenyl]methylene]cyclohexyl]-1,3,4-oxadiazole-2-carboxamide], the “rFAAH % inhibition at 100 nM” value in assay [1] (rat FAAH) is recorded as “No inhibition at 100 nM”. In addition, the IC50 in assay [2] (setting [3]) was 334 nM.

As for `CN(C)c1ccc(C(=O)NC2CCC(=Cc3cccc(Oc4ccc(C(F)(F)F)cn4)c3)CC2)cn1` (stereo not shown) [Example 2.A-24, 6-(Dimethylamino)-N-[4-[[3-[[5-(trifluoromethyl)-2-pyridyl]oxy]phenyl]methylene]cyclohexyl]pyridine-3-carboxamide], the inhibition at 0.1 µM in assay [1] (rat FAAH) is 31%. Moreover, in assay [2] (read-out: hFAAH IC50), the IC50 stood at 9 nM.

As for `Nc1ccc(C(=O)NC2CCC(=Cc3cccc(Oc4ccc(C(F)(F)F)cn4)c3)CC2)cn1` (single isomer, unassigned; (-)) [Example 20.A-4, (−)-6-Amino-N-[4-[[3-[[5-(trifluoromethyl)-2-pyridyl]oxy]phenyl]methylene]cyclohexyl]pyridine-3-carboxamide], the IC50 in assay [1] (rat FAAH, read-out: rFAAH IC50) turned out to be 11 nM; in assay [2] (read-out: hFAAH IC50) it was 1 nM.

With `Cc1cc(C(=O)NC2CCC(=Cc3cccc(Oc4ccc(C(F)(F)F)cn4)c3)CC2)cnc1N` (single isomer, unassigned; (-)) [Example 20.A-6, (−)-6-Amino-5-methyl-N-[4-[[3-[[5-(trifluoromethyl)-2-pyridyl]oxy]phenyl]methylene]cyclohexyl]pyridine-3-carboxamide], the IC50 in assay [1] (rat FAAH, read-out: rFAAH IC50) was 10 nM; in assay [2] (setting [3]), 1 nM.

`O=C(NC1CCC(=Cc2cccc(Oc3ccc(C(F)(F)F)cn3)c2)CC1)c1cccnn1` (single isomer, unassigned; (+)) [Example 20.A-15, (+)-N-[4-[[3-[[5-(trifluoromethyl)-2-pyridyl]oxy]phenyl]methylene]cyclohexyl]pyridazine-3-carboxamide]: the IC50 in assay [1] (rat FAAH, read-out: rFAAH IC50) came to 408 nM; in assay [2] (read-out: hFAAH IC50), 431 nM.

For the molecule `Cc1cnn(-c2ccc(C(=O)NC3CCC(=Cc4cccc(Oc5ccc(C(F)(F)F)cn5)c4)CC3)cn2)c1` (stereo not shown) [Example 2.B-6, 6-(4-Methylpyrazol-1-yl)-N-[4-[[3-[[5-(trifluoromethyl)-2-pyridyl]oxy]phenyl]methylene]cyclohexyl]pyridine-3-carboxamide], the IC50 in assay [1] (rat FAAH, read-out: rFAAH IC50) stood at 21 nM; in assay [2] (setting [3]), 7 nM.

Take `Cc1ccn(-c2ccc(C(=O)NC3CCC(=Cc4cccc(Oc5ccc(C(F)(F)F)cn5)c4)CC3)cn2)n1` (stereo not shown) [Example 2.B-9, 6-(3 -Methylpyrazol-1-yl)-N-[4-[[3-[[5-(trifluoromethyl)-2-pyridyl]oxy]phenyl]methylene]cyclohexyl]pyridine-3-carboxamide]: the IC50 in assay [1] (rat FAAH, read-out: rFAAH IC50) amounted to 22 nM; in assay [2] (setting [3]), 9 nM.

Consider `O=C(NC1CCC(=Cc2cccc(Oc3ccc(C(F)(F)F)cn3)c2)CC1)c1c[nH]c2ccccc12` (single isomer, unassigned; (-)) [Example 20.A-18, (−)-N-[4-[[3-[[5-(trifluoromethyl)-2-pyridyl]oxy]phenyl]methylene]cyclohexyl]-1H-indole-3-carboxamide], for which the IC50 in assay [1] stood at 35 nM; in assay [2] (setting [3]) it was 4 nM.

With `CCOc1ccc(C(=O)NC2CCC(=Cc3cccc(Oc4ccc(C(F)(F)F)cn4)c3)CC2)cn1` (stereo not shown) [Example 6.1, 6-Ethoxy-N-[4-[[3-[[5-(trifluoromethyl)-2-pyridyl]oxy]phenyl]-methylene]cyclohexyl]pyridine-3-carboxamide], the IC50 in assay [1] (rat FAAH, read-out: rFAAH IC50) came to 8 nM; in assay [2] (setting [3]) it was 10 nM.

Consider `O=C(NC1CCC(=Cc2cccc(Oc3ccc(C(F)(F)F)cn3)c2)CC1)c1ccc(N2CCCC2)nc1` (stereo not shown) [Example 5.A-2, 6-Pyrrolidin-1-yl-N-[4-[[3-[[5-(trifluoromethyl)-2-pyridyl]oxy]phenyl]methylene]cyclohexyl]pyridine-3-carboxamide], for which, in assay [1] (rat FAAH, read-out: rFAAH IC50), the 50% inhibitory concentration (IC50) came out at 28 nM. The inhibition at 0.1 µM in assay [2] (read-out: hFAAH % inhibition at 100 nM, human FAAH, 100 nM (tier I)) was determined as 54%.

Regarding `Cc1n[nH]c(C)c1C(=O)NC1CCC(=Cc2cccc(Oc3ccc(C(F)(F)F)cn3)c2)CC1` (stereo not shown) [Example 2.A-35, 3,5-Dimethyl-N-[4-[[3-[[5-(trifluoromethyl)-2-pyridyl]oxy]phenyl]methylene]cyclohexyl]-1H-pyrazole-4-carboxamide], the inhibition at 0.1 µM in assay [1] (rat FAAH) was 38%. The concentration for half-maximal inhibition (IC50) in assay [2] (read-out: hFAAH IC50) came out at 29 nM.

In the case of `O=C(NC1CCC(=Cc2cccc(Oc3ccc(C(F)(F)F)cn3)c2)CC1)c1cncc(F)c1` (stereo not shown) [Example 2.A-15, 5-Fluoro-N-[4-[[3-[[5-(trifluoromethyl)-2-pyridyl]oxy]phenyl]methylene]cyclohexyl]pyridine-3-carboxamide], the results for the IC50 in assay [1] and in assay [2] (hFAAH IC50) were 188 nM and 5 nM, respectively.

`N#Cc1ccc(C(=O)NC2CCC(=Cc3cccc(Oc4ccc(C(F)(F)F)cn4)c3)CC2)cn1` (stereo not shown) [Example 2.A-27, 6-Cyano-N-[4-[[3-[[5-(trifluoromethyl)-2-pyridyl]oxy]phenyl]methylene]cyclohexyl]pyridine-3-carboxamide]: in assay [1] (rat FAAH), the inhibition at 0.1 µM was 27%. The IC50 in assay [2] (setting [3]) came to 55 nM.

Turning to `Cc1ncccc1C(=O)NC1CCC(=Cc2cccc(Oc3ccc(C(F)(F)F)cn3)c2)CC1` (stereo not shown) [Example 2.A-28, 2-Methyl-N-[4-[[3-[[5-(trifluoromethyl)-2-pyridyl]oxy]phenyl]methylene]cyclohexyl]pyridine-3-carboxamide], the “rFAAH % inhibition at 100 nM” value in assay [1] (rat FAAH) was “No inhibition at 100 nM”. In addition, the IC50 in assay [2] (setting [3]) was 31 nM.

For `Nc1ncc(C(=O)NC2CCC(=Cc3cccc(Oc4ccc(C(F)(F)F)cn4)c3)CC2)cn1` (single isomer, unassigned; (-)) [Example 20.A-10], the IC50 in assay [1] (rat FAAH, read-out: rFAAH IC50) was 7 nM; in assay [2] (read-out: hFAAH IC50), 0.6 nM.

For `Cc1n[nH]c(C)c1-c1ccc(C(=O)NC2CCC(=Cc3cccc(Oc4ccc(C(F)(F)F)cn4)c3)CC2)cn1` (stereo not shown) [Example 2.B-11, 6-(3,5-Dimethyl-1H-pyrazol-4-yl)-N-[4-[[3-[[5-(trifluoromethyl)-2-pyridyl]oxy]phenyl]methylene]cyclohexyl]pyridine-3-carboxamide], the IC50 in assay [1] (rat FAAH, read-out: rFAAH IC50) was 52 nM; in assay [2] (setting [3]) it was 17 nM.

For the molecule `Cc1ccc(C(=O)NC2CCC(=Cc3cccc(Oc4ccc(C(F)(F)F)cn4)c3)CC2)cn1` (stereo not shown) [Example 2.2, 6-Methyl-N-[4-[[3-[[5-(trifluoromethyl)-2-pyridyl]oxy]phenyl]-methylene]cyclohexyl]pyridine-3-carboxamide], the IC50 in assay [1] (rat FAAH, read-out: rFAAH IC50) was 28 nM; in assay [2] (read-out: hFAAH IC50) it was 5 nM.
